The test concerns Human lung fibroblast cells HFL1. As to the kind of experiment: cells. In kind it is cell-based. The protocol:
Human lung fibroblast cells HFL1 were seeded as 5×10^4 cells/well in 48-well plate and cultured for 3-7 days in FK12 medium supplemented with 10% heat inactivated fetal calf serum, 2 mM L-glutamine, streptomycin (100 μg/ml), and penicillin (100 units/ml). […] Medium was removed and cells were fixed to the plate with 0.5% glutaraldehyde, prepared in 1× phosphate-buffered-saline (PBS), for 30 minutes at room temperature. Glutaraldehyde was removed, cells were washed with ddH2O and the first 24 wells, which were used to determine collagen synthesis, were treated with 0.5 M acetic acid for 30 minutes, while the second 24 wells were stained with 0.1% crystal violet for viability for 30 minutes at room temperature. After all of the wells were washed with ddH2O, 250 μl of Sirius Red was added to acetic acid-treated cells for 2 hours. The Sirius Red was then removed, and the wells were washed with ddH2O. Absorbed Sirius Red and crystal violet were eluted with 300 μl of alkaline solution and 0.1 M citric acid (pH: 4.2) prepared in 50% ethanol, respectively.
Absorbances of eluted Sirius Red and crystal violet were determined at 540 and 600 nm. The extent of collagen accumulation was determined by normalizing the levels of induced collagen to cell density.

Each structure is given as a SMILES string. Where two headings read alike, the source gives them in different places.

As to `Cc1ccc(=O)n(-c2ccccc2)c1` [P, pirfenidone], the fold induction at 1000 µM is, setting by setting: (HFL1, 24 h, read-out: Fold Induction of Collagen, 250 pg/ml TGF-β, 24 hrs., P 1 mM, A 300 pg/mL) 0.973; (HFL1, 24 h, read-out: Fold Induction of Collagen, 500 pg/ml TGF-β, 24 hrs., P 1 mM, A 300 pg/mL) 0.98; (HFL1, 24 h, read-out: Fold Induction of Collagen, 1000 pg/ml TGF-β, 24 hrs., P 1 mM, A 300 pg/mL) 0.998; (HFL1, 48 h, read-out: Fold Induction of Collagen, 250 pg/ml TGF-β, 48 hrs., P 1 mM, A 300 pg/mL) 0.997; (HFL1, 48 h, read-out: Fold Induction of Collagen, 500 pg/ml TGF-β, 48 hrs., P 1 mM, A 300 pg/mL) 0.884; (HFL1, 48 h, read-out: Fold Induction of Collagen, 1000 pg/ml TGF-β, 48 hrs., P 1 mM, A 300 pg/mL) 0.954. Moreover, the fold induction at 1000 µM was 0.928 (HFL1, 72 h, read-out: Fold Induction of Collagen, 250 pg/ml TGF-β, 72 hrs., P 1 mM, A 300 pg/mL); 0.931 (HFL1, 72 h, read-out: Fold Induction of Collagen, 500 pg/ml TGF-β, 72 hrs., P 1 mM, A 300 pg/mL); 0.917 (HFL1, 72 h, read-out: Fold Induction of Collagen, 1000 pg/ml TGF-β, 72 hrs., P 1 mM, A 300 pg/mL).

These data come from patent US20080003635A1, “High Throughput Collagen Synthesis Assay” (InterMune, Inc., priority 2006, published 2008).
